Laboratory results: US6759546B1, “3,5-di-iso-propyl-heptatrienoic acid derivatives having serum glucose reducing activity” (Allergan, Inc., priority 2003, dated 2004)
Where a chain is given by its changes, count along the chain named.

Assays:
[1] = tested on: female diabetic db/db mice; test: serum glucose, triglyceride and thyroxine levels in db/db mice; type: in vivo; details: 50 mg/kg oral gavage daily; for Glucose Day 0 / Triglycerides Day 0: day 0 (pre-treatment)
Description: An assay described below tests the effect of compounds of the invention on serum glucose, tryglyceride and thyroxine levels in female 9-10 weeks old db/db mice.
Blood samples (70 μl) were taken by orbital bleeding at 11:00 AM on day 0 (pre-treatment), day 3, and day 6. On day 7, a blood sample (700 μl) was taken at 11:00 AM and the animals were sacrificed. Glucose, triglyceride and thyroxine (T4) levels were determined on a Boehringer Manheim Hatachi Clinical Chemistry Analyzer using standard protocols provided by the manufacturer and reagents that were supplied in commercially available kits (glucose and T4: Boehringer Manheim; triglycerides: Roche Diagnostics). Seven animals were treated in each group.

RXRβ = molecular target: T1, RXRβ (Homo sapiens, UniProt P28702); test: ligand binding assay; details: read-out: RXR Bind. Ki β
T1 sequence (P28702 1-533): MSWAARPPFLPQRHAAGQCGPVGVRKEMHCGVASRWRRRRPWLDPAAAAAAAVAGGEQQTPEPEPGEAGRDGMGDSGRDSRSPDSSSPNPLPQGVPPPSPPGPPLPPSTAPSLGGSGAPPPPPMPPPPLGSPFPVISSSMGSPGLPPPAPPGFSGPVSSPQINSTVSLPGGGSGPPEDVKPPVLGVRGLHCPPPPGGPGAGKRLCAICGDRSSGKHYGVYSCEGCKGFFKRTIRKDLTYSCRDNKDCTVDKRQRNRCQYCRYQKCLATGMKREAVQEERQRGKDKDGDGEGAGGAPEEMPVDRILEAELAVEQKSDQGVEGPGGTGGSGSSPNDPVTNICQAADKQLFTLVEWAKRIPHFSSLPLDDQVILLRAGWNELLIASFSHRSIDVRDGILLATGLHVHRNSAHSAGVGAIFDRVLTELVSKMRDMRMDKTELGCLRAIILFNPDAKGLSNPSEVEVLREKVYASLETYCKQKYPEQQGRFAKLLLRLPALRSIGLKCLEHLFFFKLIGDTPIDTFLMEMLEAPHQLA
Description: (§1) The results of the ligand binding assay are expressed in Ki numbers.

RXRγ [2] = molecular target: T2, RXRγ (UniProt P28705); test: holoreceptor transactivation assay; details: percentage compared to the standard compound
T2 sequence (P28705 1-463): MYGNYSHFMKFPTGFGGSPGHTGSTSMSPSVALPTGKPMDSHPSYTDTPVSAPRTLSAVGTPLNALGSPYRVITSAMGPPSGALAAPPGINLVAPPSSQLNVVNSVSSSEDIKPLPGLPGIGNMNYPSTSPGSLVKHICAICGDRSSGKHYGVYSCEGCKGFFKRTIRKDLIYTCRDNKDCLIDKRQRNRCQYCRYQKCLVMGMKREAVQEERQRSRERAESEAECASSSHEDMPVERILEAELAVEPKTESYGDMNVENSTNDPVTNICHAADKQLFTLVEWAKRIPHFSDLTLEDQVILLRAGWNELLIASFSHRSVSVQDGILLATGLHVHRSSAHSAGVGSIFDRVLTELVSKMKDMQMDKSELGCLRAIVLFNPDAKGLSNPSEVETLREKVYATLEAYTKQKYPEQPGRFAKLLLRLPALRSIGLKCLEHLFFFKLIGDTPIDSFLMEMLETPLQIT
Description: The results obtained in this assay are expressed in EC50 numbers, as they are also in the chimeric receptor transactivation assay.
Particularly, the transactivation data pertaining to activation of the RAR receptors were obtained in the chimeric assay, and the transactivation data pertaining to the activation of RXR receptors were obtained in the holoreceptor assay.

RXRγ [3] = molecular target: T3, RXRγ (Homo sapiens, UniProt P48443); test: ligand binding assay; details: read-out: RXR Bind. Ki γ
T3 sequence (P48443 1-463): T2 sequence (P28705 1-463) with T13A, F15Y, V31A, P34S, S228T, S230G, V258M, S450T
Description: as §1

SMILES	Glucose Day 0 ([1]; Table 3) [mg/dL]	Triglycerides Day 0 ([1]; Table 3) [mg/dL]	Glucose Day 3, 3 h ([1]; Table 3) [mg/dL]	Triglycerides Day 3, 3 h ([1]; Table 3) [mg/dL]	Glucose Day 6, 3 h ([1]; Table 3) [mg/dL]	T4 Day 7 ([1]; Table 3) [µg/dL]	Ki (RXRβ) [nM]	RXR Trans. efficacy γ (RXRγ [2]) [%]	Glucose Day 0 ([1]; Table 2) [mg/dL]	Triglycerides Day 0 ([1]; Table 2) [mg/dL]	Glucose Day 3, 3 h ([1]; Table 2) [mg/dL]	Triglycerides Day 3, 3 h ([1]; Table 2) [mg/dL]	Glucose Day 6, 3 h ([1]; Table 2) [mg/dL]	T4 Day 7 ([1]; Table 2) [µg/dL]	Ki (RXRγ [3]) [nM]
CCCOc1c(\C(=C/C=C/C(C)=C/C(=O)O)CC)cc(C(C)C)cc1C(C)C [Compound 8, 7-(3,5-Diisopropyl-2-propoxy-phenyl)-3-methyl-nona-2,4,6-trienoic acid]	468	173	443	278	384	3.0	12	21							
CCCOc1c(\C(C)=C/C=C/C(C)=C/C(=O)O)cc(C(C)C)cc1C(C)C [Compound 16, 7-(3,5-Diisopropyl-2-propoxy-phenyl)-3-methyl-octa-2,4,6-trienoic acid]							12	25	365	199	283	189	309	2.2	21
